Experiments:
[1] = target: ATP synthase F(1) complex subunit beta, mitochondrial (Homo sapiens) (UniProt P06576)
[2] = target: Structural maintenance of chromosomes protein 3 (Homo sapiens) (UniProt Q9UQE7)
[3] = target: Histone H1.10 (Homo sapiens) (UniProt Q92522)
[4] = target: Interleukin enhancer-binding factor 2 (Homo sapiens) (UniProt Q12905)
[5] = target: Eukaryotic translation initiation factor 6 (Homo sapiens) (UniProt P56537)
[6] = target: Large ribosomal subunit protein eL21 (Homo sapiens) (UniProt P46778)
[7] = target: Bone morphogenetic protein receptor type-1B (Homo sapiens) (UniProt O00238)
[8] = target: DNA replication licensing factor MCM2 (Homo sapiens) (UniProt P49736)
[9] = target: Monocarboxylate transporter 1 (Homo sapiens) (UniProt P53985)
[10] = target: Eukaryotic translation initiation factor 4B (Homo sapiens) (UniProt P23588)
[11] = target: 26S proteasome regulatory subunit 6B (Homo sapiens) (UniProt P43686)
[12] = target: Conserved oligomeric Golgi complex subunit 4 (Homo sapiens) (UniProt Q9H9E3)
[13] = target: Keratin, type I cytoskeletal 18 (Homo sapiens) (UniProt P05783)
[14] = target: Elongation factor 1-delta (Homo sapiens) (UniProt P29692)
[15] = target: H/ACA ribonucleoprotein complex subunit DKC1 (Homo sapiens) (UniProt O60832)
[16] = target: Mitochondrial carrier homolog 2 (Homo sapiens) (UniProt Q9Y6C9)
[17] = target: Receptor-interacting serine/threonine-protein kinase 2 (Homo sapiens) (UniProt O43353)
[18] = target: 26S proteasome non-ATPase regulatory subunit 7 (Homo sapiens) (UniProt P51665)
[19] = target: Vesicle-associated membrane protein 8 (Homo sapiens) (UniProt Q9BV40)
[20] = target: Mitogen-activated protein kinase 9 (Homo sapiens) (UniProt P45984)
[21] = target: Splicing factor 3B subunit 1 (Homo sapiens) (UniProt O75533)
[22] = target: Ribosomal protein S6 kinase alpha-4 (Homo sapiens) (UniProt O75676)
[23] = target: Actin-related protein 2/3 complex subunit 5 (Homo sapiens) (UniProt O15511)
[24] = target: Band 4.1-like protein 2 (Homo sapiens) (UniProt O43491)
[25] = target: Lamina-associated polypeptide 2, isoform alpha (Homo sapiens) (UniProt P42166)
[26] = organism: Homo sapiens
[27] = target: Histone H1.0 (Homo sapiens) (UniProt P07305)
[28] = target: Nuclear mitotic apparatus protein 1 (Homo sapiens) (UniProt Q14980)
[29] = target: LIM and SH3 domain protein 1 (Homo sapiens) (UniProt Q14847)
[30] = organism: Homo sapiens; remark: listed apart in the source
[31] = target: Calcium/calmodulin-dependent protein kinase type II subunit gamma (Homo sapiens) (UniProt Q13555)
[32] = target: Stress-induced-phosphoprotein 1 (Homo sapiens) (UniProt P31948)
[33] = target: NADH dehydrogenase [ubiquinone] iron-sulfur protein 2, mitochondrial (Homo sapiens) (UniProt O75306)
[34] = target: Ceramide synthase 2 (Homo sapiens) (UniProt Q96G23)
[35] = target: Nucleolysin TIAR (Homo sapiens) (UniProt Q01085)
[36] = target: ATP-binding cassette sub-family E member 1 (Homo sapiens) (UniProt P61221)
[37] = target: Histone H1.4 (Homo sapiens) (UniProt P10412)
[38] = target: Serine/threonine-protein kinase TAO2 (Homo sapiens) (UniProt Q9UL54)
[39] = target: Myosin-9 (Homo sapiens) (UniProt P35579)
[40] = target: Clathrin light chain A (Homo sapiens) (UniProt P09496)
[41] = target: Casein kinase I isoform epsilon (Homo sapiens) (UniProt P49674)
[42] = target: Calcium/calmodulin-dependent protein kinase type IV (Homo sapiens) (UniProt Q16566)
[43] = target: CCR4-NOT transcription complex subunit 1 (Homo sapiens) (UniProt A5YKK6)
[44] = target: Dynein light chain 2, cytoplasmic (Homo sapiens) (UniProt Q96FJ2)
[45] = target: Peroxisomal acyl-coenzyme A oxidase 3 (Homo sapiens) (UniProt O15254)
[46] = target: mRNA turnover protein 4 homolog (Homo sapiens) (UniProt Q9UKD2)
[47] = target: Ephrin type-A receptor 7 (Homo sapiens, UniProt Q15375)
Note: assay method not described here.

Sequence of Monocarboxylate transporter 1 (Homo sapiens) (P53985 whole entry): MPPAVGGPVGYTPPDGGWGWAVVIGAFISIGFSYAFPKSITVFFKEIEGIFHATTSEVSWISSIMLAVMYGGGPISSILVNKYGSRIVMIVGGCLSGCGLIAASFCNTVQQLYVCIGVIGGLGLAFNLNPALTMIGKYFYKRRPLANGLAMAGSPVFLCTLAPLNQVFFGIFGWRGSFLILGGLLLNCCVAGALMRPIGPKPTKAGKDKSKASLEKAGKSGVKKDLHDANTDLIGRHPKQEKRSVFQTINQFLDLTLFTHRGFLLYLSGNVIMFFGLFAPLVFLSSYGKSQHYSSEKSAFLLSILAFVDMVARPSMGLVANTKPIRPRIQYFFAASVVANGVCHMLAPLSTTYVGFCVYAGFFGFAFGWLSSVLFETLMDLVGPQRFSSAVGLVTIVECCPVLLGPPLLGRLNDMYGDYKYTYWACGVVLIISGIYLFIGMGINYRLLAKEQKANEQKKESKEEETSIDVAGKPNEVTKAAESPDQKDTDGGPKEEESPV
Sequence of Histone H1.0 (Homo sapiens) (P07305 whole entry, looked up): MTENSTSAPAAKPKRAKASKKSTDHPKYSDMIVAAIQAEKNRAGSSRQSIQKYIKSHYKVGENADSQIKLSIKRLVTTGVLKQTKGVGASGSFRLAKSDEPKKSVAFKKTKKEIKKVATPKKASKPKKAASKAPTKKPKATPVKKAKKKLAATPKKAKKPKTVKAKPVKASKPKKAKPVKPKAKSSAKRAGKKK
Sequence of Elongation factor 1-delta (Homo sapiens) (P29692 whole entry): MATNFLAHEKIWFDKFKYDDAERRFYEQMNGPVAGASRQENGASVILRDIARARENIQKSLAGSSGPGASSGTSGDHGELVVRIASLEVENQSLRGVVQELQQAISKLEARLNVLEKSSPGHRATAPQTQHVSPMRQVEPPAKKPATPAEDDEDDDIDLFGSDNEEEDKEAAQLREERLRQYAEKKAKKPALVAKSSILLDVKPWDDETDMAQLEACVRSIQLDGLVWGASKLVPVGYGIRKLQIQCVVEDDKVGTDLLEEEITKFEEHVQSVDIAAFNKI
Sequence of H/ACA ribonucleoprotein complex subunit DKC1 (Homo sapiens) (O60832 whole entry, one chain of several): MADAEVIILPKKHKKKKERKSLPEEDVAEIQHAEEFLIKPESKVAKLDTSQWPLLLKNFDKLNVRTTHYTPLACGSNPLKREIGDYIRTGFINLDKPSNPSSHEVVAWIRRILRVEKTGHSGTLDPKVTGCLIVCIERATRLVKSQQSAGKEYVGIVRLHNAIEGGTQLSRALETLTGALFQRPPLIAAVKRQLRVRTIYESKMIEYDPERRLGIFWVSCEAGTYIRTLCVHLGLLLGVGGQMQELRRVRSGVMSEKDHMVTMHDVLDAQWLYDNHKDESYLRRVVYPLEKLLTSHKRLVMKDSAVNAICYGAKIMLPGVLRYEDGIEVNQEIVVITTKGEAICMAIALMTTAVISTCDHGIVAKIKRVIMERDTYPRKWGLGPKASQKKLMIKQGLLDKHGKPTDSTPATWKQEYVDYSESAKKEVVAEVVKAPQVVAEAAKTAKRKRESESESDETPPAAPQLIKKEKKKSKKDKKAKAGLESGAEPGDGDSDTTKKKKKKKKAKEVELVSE
Sequence of CCR4-NOT transcription complex subunit 1 (Homo sapiens) (A5YKK6 whole entry, one chain of several): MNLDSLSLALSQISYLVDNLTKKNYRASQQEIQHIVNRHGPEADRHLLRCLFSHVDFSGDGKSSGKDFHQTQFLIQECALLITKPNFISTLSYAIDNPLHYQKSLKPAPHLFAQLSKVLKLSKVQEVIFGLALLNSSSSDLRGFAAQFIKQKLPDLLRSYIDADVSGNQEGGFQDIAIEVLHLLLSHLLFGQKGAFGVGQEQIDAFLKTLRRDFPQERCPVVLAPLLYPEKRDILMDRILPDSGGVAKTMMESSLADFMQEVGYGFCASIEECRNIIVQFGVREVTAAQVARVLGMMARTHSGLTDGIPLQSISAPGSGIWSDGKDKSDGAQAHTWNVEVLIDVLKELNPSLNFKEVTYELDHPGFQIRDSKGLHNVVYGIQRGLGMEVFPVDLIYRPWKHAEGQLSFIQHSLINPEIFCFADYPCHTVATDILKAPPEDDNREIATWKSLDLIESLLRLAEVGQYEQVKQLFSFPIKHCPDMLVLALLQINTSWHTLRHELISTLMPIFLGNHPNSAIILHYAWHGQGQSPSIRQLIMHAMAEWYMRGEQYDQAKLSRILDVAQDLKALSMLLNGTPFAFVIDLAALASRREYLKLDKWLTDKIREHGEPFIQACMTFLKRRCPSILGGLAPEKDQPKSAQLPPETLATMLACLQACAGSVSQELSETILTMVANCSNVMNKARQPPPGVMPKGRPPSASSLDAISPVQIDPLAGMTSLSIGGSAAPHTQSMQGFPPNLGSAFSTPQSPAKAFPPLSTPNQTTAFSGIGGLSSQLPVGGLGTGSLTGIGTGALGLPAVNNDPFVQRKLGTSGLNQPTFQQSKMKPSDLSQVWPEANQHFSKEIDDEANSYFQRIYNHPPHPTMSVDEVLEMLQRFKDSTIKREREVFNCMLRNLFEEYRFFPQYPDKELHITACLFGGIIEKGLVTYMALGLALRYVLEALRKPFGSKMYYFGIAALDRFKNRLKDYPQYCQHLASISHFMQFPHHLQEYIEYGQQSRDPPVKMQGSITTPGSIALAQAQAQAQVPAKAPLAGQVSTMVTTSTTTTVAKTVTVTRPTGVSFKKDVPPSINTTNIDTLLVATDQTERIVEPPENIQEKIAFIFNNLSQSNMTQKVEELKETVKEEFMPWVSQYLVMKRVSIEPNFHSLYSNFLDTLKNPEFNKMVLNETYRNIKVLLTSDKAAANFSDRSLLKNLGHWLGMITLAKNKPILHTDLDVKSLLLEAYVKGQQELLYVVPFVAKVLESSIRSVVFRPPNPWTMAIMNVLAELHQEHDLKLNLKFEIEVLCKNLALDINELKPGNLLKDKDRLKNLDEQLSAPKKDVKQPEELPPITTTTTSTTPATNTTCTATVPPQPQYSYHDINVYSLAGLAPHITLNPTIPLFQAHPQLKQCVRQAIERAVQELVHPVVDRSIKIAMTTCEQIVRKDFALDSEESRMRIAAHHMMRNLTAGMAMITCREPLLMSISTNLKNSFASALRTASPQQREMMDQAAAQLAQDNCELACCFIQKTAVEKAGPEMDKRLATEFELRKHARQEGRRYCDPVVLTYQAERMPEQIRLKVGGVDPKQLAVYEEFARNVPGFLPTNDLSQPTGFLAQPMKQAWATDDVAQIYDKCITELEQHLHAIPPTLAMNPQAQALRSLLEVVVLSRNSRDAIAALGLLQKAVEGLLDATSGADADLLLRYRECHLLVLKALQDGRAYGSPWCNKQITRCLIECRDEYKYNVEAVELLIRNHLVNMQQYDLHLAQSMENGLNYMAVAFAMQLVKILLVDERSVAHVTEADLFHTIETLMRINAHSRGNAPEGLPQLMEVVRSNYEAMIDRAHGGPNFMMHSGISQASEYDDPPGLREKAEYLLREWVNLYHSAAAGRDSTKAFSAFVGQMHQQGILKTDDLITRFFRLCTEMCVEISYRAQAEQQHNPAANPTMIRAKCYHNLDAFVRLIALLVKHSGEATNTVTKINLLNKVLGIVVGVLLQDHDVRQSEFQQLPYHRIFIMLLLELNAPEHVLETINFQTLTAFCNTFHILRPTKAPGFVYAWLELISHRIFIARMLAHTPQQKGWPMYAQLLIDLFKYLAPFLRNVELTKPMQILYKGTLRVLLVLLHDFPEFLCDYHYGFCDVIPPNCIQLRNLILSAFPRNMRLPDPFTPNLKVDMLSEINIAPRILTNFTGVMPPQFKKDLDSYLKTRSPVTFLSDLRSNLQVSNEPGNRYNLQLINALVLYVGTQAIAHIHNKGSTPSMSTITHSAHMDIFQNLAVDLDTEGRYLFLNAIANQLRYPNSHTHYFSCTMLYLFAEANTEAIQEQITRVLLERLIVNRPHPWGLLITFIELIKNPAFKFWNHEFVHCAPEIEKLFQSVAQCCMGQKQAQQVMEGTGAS
Sequence of Serine/threonine-protein kinase TAO2 (Homo sapiens) (Q9UL54 whole entry): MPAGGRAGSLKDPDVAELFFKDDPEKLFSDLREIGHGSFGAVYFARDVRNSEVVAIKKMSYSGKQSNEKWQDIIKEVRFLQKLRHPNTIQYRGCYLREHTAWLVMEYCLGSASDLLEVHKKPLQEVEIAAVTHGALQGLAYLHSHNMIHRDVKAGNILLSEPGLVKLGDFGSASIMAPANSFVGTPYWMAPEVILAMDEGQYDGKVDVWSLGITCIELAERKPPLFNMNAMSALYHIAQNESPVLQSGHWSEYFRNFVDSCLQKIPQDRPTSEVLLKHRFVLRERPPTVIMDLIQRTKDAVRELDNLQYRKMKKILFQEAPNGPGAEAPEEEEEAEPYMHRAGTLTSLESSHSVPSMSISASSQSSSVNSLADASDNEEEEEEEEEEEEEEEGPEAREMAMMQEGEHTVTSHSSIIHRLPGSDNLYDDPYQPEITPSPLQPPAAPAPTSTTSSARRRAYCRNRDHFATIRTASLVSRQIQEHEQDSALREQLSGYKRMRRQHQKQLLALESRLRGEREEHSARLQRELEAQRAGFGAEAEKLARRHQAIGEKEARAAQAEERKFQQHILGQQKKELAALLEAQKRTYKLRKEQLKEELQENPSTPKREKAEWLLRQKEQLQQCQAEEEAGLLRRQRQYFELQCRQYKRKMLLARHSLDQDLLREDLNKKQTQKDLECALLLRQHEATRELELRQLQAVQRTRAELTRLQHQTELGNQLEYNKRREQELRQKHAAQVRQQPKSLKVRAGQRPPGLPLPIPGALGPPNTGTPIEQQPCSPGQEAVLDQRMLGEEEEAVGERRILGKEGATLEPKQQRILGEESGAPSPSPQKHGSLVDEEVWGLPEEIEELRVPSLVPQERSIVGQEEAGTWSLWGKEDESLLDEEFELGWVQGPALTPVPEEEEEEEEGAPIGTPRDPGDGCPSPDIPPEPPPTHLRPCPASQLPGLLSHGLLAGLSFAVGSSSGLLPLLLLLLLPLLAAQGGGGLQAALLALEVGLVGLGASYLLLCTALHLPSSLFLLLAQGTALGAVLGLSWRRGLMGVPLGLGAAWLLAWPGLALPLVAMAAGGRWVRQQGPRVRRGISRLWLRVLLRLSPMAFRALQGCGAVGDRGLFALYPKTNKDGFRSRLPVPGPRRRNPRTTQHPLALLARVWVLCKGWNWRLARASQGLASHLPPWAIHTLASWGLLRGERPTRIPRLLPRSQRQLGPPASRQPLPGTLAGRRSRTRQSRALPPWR

## Cc1ccc(C(=O)Nc2cccc(C(F)(F)F)c2)cc1Nc1nc(-c2cccnc2)nc2c1cnn2C
[1]
  ED50: 0.882 µM
[2]
  ED50: 0.0434 µM
[3]
  ED50: 7.24 µM
[4]
  ED50: 4.54 µM
[5]
  ED50: 3 µM
[6]
  ED50: 1.64 µM
[7]
  ED50: 6290 µM
[8]
  ED50: 3.39 µM
[9]
  ED50: 0.0482 µM
[10]
  ED50: 0.449 µM
[11]
  ED50: 6.14 µM
[12]
  ED50: 4.61 µM
[13]
  ED50: 7.35 µM
[14]
  ED50: 1.74 µM
[15]
  ED50: 3.14 µM
[16]
  ED50: 0.0279 µM
[17]
  ED50: 29.5 µM
[18]
  ED50: 4.12 µM
[19]
  ED50: 1.84 µM
[20]
  ED50: 0.0588 µM
[21]
  ED50: 2.85 µM
[22]
  ED50: 0.0142 µM
[23]
  ED50: 3.49 µM
[24]
  ED50: 0.00541 µM
[25]
  ED50: 3.35 µM
[26]
  ED50: 7.04 µM
[27]
  ED50: 0.753 µM
[28]
  ED50: 0.000308 µM
[29]
  ED50: 0.00467 µM
[30]
  ED50: 0.0636 µM
[31]
  ED50: 0.177 µM
[32]
  ED50: 3.83 µM
[33]
  ED50: 0.0453 µM
[34]
  ED50: 0.0683 µM
[35]
  ED50: 0.934 µM
[36]
  ED50: 13.8 µM
[37]
  ED50: 62.9 µM
[38]
  ED50: 23.9 µM
[39]
  ED50: 0.756 µM
[40]
  ED50: 0.55 µM
[41]
  ED50: 4.26 µM
[42]
  ED50: 2.34 µM
[43]
  ED50: 0.0688 µM
[44]
  ED50: 0.148 µM
[45]
  ED50: 0.00533 µM
[46]
  ED50: 10.8 µM
[47]
  ED50: 15.8 µM

## Cc1ccc(C(=O)Nc2cccc(C(F)(F)F)c2)cc1Nc1nc(-c2cccnc2)nc2nn(C)cc12
[1]
  ED50: 2.31 µM
[2]
  ED50: 0.431 µM
[3]
  ED50: 0.0167 µM
[4]
  ED50: 0.0135 µM
[5]
  ED50: 0.223 µM
[6]
  ED50: 9.95 µM
[7]
  ED50: 60.4 µM
[8]
  ED50: 0.0024 µM
[9]
  ED50: 2.98 µM
[10]
  ED50: 0.0001 µM
[11]
  ED50: 0.508 µM
[12]
  ED50: 0.0222 µM
[13]
  ED50: 0.581 µM
[14]
  ED50: 0.0538 µM
[15]
  ED50: 5.99 µM
[16]
  ED50: 0.13 µM
[17]
  ED50: 0.073 µM
[18]
  ED50: 0.0711 µM
[19]
  ED50: 4.59 µM
[20]
  ED50: 13.7 µM
[21]
  ED50: 3 µM
[22]
  ED50: 0.154 µM
[23]
  ED50: 2.93 µM
[24]
  ED50: 0.338 µM
[25]
  ED50: 6.61 µM
[26]
  ED50: 39.2 µM
[27]
  ED50: 1.29 µM
[28]
  ED50: 0.0318 µM
[29]
  ED50: 109 µM
[30]
  ED50: 233 µM
[31]
  ED50: 0.0517 µM
[32]
  ED50: 0.0577 µM
[33]
  ED50: 1.24 µM
[34]
  ED50: 3.6 µM
[35]
  ED50: 0.00129 µM
[36]
  ED50: 0.000362 µM
[37]
  ED50: 5.19 µM
[38]
  ED50: 4.27 µM
[39]
  ED50: 0.0973 µM
[40]
  ED50: 0.0659 µM
[41]
  ED50: 0.00408 µM
[42]
  ED50: 2.78 µM
[43]
  ED50: 0.0203 µM
[44]
  ED50: 0.459 µM
[45]
  ED50: 7.13 µM
[46]
  ED50: 0.311 µM
[47]
  ED50: 1.49 µM

Source: ChEMBL document CHEMBL5649169 (ChemMedChem, 2018)
